Measured values: patent US20150265669A1, “METHODS AND COMPOSITIONS FOR INHIBITING CANCER CELL GROWTH” (priority 2014, published 2015)
In brackets after ≈: the same amount, converted by molar mass.

Columns and labels:
[1] = tested on: Spleen tissue of leukaemic BALB/c mice; assay: TUNEL assay of spleen tissue; type: in vivo; conditions: Morinda at low and high doses
A549 cells (lung cancer) [2] = assay: Flow cytometric cell cycle phase distribution; type: cell-based, human; conditions: A549, IC50 concentration; for cell cycle arrest: 12-72 hours
Procedure: The Wehi-3B (blood cancer) or A549 (lung cancer) cells (2×10^5 cells/mL) were treated with IC50 concentration of Morinda spp. leaves, or Clinacanthus spp. leaves with or without Zingiber extract and compared with erlotinib. After 12, 24, 48, and 72 hours of incubation, the cells were trypsinized, washed, fixed in 70% ethanol, stained with 1 mg/mL PI and analysed by flow cytometry (BD FACS Canto II, USA).
For flow cytometry analysis fixation of cell population must be performed to keep the integrity and the cell pellets were fixed by adding of 500 μl of 70% chilled ethanol and kept at −20° c. for 5-7 days. Then, the cells were centrifuged at 1000 rpm for 10 minutes and the ethanol was removed. The cells were washed with washing solution containing PBS, EDTA, bovine serum albumin and sodium azide twice, and the pellet cells were resuspended to staining buffer containing 1 ml PBS and 3 μl PI (10 mg/ml) and 10 μl RNase A (50 mg/ml) for 30 minutes on ice dark place. RNase was added in order to permit PI to bind exactly to DNA. The DNA content of cells was analysed with a BD flow cytometer, and the data analysis was performed by using summit V4.3 software.

A549 cells = assay: MTT cytotoxicity assay on A549 cells; type: cell-based; conditions: Homo sapiens, after 72 hours, read-out: IC50 concentrations
Procedure: The cytoxicity properties of the extract were determined by using MTT assay. MTT dye is a water-soluble yellow dye that is decreased in viable cells to MTT-formazan (3-[4,5-dimethylthiazol-2-yl]-3,5-diphenylformazan) that is an insoluble purple colored product, by the succinate dehydrogenase mitochondrial enzyme. The cells were seeded in 96-well Microplates at a density of 2×10^5 cells/ml. After 24 hours incubation, the cells were treated with various concentrations of Morinda leaf, or Clinacanthus spp. Leaves and root extract ([…]) for 24, 48 and 72 h. After 72 hours of incubation, 20 μL of MTT solution (5 mg/ml in PBS) was added in each well and the plates incubated for 4 hours. Then, after removing the media the formazan crystals were dissolved with 100 μL DMSO. Finally the absorbance was determined at 570 and 630 nm in a microplate reader (ECAN, Sunrise™, Männedorf, Switzerland). Cell viability was calculated as the percentage of absorbent compared to control. The 50% inhibitory concentration (IC50) value, defined as the amount of Morinda citrifolia leaf, or Clinacanthus spp. Leaves and root extract that inhibits 50% of cell growth, was calculated from the concentration-response curves. All experiments were carried out in triplicate. Three independent experiments performed in triplicate were used for these calculations. […]

[3] = tested on: A549 cells injected subcutaneously; assay: In vivo tumor xenograft model; parameters: species or system mice; conditions: erlotinib 50 mg/kg, daily oral gavage 21 days
Procedure: Male BALB/C mice (6 weeks old, weighing 19-20 g) were purchased from Faculty of Veterinary Medicine, University Putra Malaysia. Mice were housed in laminar air-flow cabinets under pathogen-free conditions with a 12-h light/12-h dark schedule and fed with autoclaved standard chow and water ad libitum. A549 cells (2×10^7) resuspended in 100 μL PBS were injected subcutaneously into the backs of mice. When tumor size reached approximately 100 mm^3, after 14 days of implantation, mice were randomly assigned to the following experimental groups and administered daily by oral gavage for 21 days: (a) saline; (b) erlotinib (50 mg/kg); (c) 150 mg/kg and (d) 300 mg/kg of Morinda spp. leaves, Clinacanthus spp. leaves. Mice were sacrificed via intraperitoneal injection of ketamine HCl (100 mg/kg) and xylazine (10 mg/kg). Tumor was collected. Some were kept in liquid nitrogen for gene expression, while others were fixed in 10% formalin and embedded in paraffin for hematoxylin and eosin (H&E) and immunohistochemical (IHC) examination. IHC kits (ChemMate™ DAKO EnVision™ Detection Kit, Peroxidase/DAB, Rabbit/Mouse) were purchased from Dako, Denmark. […]
Data was expressed as mean±standard deviation (mean±SD) of at least three independent experiments; significant differences (p<0.05) using one-way analysis of variance (ANOVA) and Duncan test using statistical analysis IBM SPSS Statistics 21 software.

A549 cells (lung cancer) [4] = assay: AO/PI double staining fluorescence microscopy; type: cell-based, human; conditions: 200x
Procedure: AO/PI double staining was carried out to visualize any morphological changes in the cells upon treatment and also to semi-quantitated viable, apoptotic and necrotic cells, as shown in FIG. 3. […] After 24 hours treatment, blebbing of the cell membrane and dense green nucleus, which indicated nuclear chromatin condensation were noticeable (FIGS. 3(b) and 3(e)). Both early apoptosis features (blebbing and chromatin condensation) and late phases of apoptosis, which specify presence of intense reddish-orange colour due to acridine orange binding to denatured DNA, were observed more apparent at 48 hours of treatment (FIGS. 3(c) and 3(f)) and prominent at 72 hours (FIGS. 3(d) and 3(g)).

A549 (lung cancer) = assay: Colourimetric assay of caspase 3, 8 and 9 in A549; type: cell-based, human; conditions: A549, treated vs untreated cells, 24-72 hours
Procedure: The colorimetric assay of caspase 3 was performed using fluorometric and colorimetric assay kit (biotium kit). Wehi-3B (blood cancer) or A549 (lung cancer) cells at concentration of 1×10^6 cells/ml were cultured in RPMI 1640 (ATCC, USA) medium supplemented with 10% fetal bovin serum and were seeded into […] culture flask. […] Untreated cells acted as control. The cells were lysed with cold lysis buffer and incubated for 10 minutes on ice. Then, cell lysate was spun down at 10000 rpm for 5 minutes. The supernatant was transferred to new wells and 50 μl assay buffer was added to each samples. Then, 5 μl of enzyme substrate (caspase-3 and 8 substrate) was added to each sample and incubated at 37° c. for 30-60 minutes in a dark place. […]. The samples were read at 495 nm in a microplate reader. Finally, the results were shown as optical density (495 nm, mean SD).

A549 cells (lung cancer) [5] = assay: Morphological changes under normal phase contrast inverted microscope; type: cell-based, human; conditions: 400x
Procedure: Wehi-3B (blood cancer) or A549 (lung cancer) cells at concentration of 1×10^6 cells/ml were cultured in RPMI 1640 (ATCC, USA) medium supplemented with 10% fetal bovin serum and were seeded into […] culture flask. […] The morphological changes of the cells were observed under normal inverted microscope. Untreated cells were used as negative control. Some morphological appearances such as plasma membrane blebbing, rounding up the cells, cell detachment, cell shrinkage and formation of vacuole in the cell were observed.
Similarly Human lung fibroblast (MRC5), human lung adenocarcinoma (A549) cell lines, Essential Modified Eagle's Medium (EMEM) and Kaighn's Modification of Ham's F-12 (F-12K) medium were obtained from American Type Culture Collection (ATCC). MRC5 and A549 cells were cultured in EMEM and F-12K medium, respectively. Both media supplemented with 10% fetal bovine serum (FBS) and 1% of 100 μg/mL penicillin and streptomycin. Cells were grown in a humidified incubator at 37° C. with 5% CO2.

tumor tissues = assay: Mouse apoptosis RT-PCR-Array on tumor tissues; type: in vivo, mice
Procedure: Male BALB/C mice (6 weeks old, weighing 19-20 g) were purchased from Faculty of Veterinary Medicine, University Putra Malaysia. Mice were housed in laminar air-flow cabinets under pathogen-free conditions with a 12-h light/12-h dark schedule and fed with autoclaved standard chow and water ad libitum. A549 cells (2×10^7) resuspended in 100 μL PBS were injected subcutaneously into the backs of mice. When tumor size reached approximately 100 mm^3, after 14 days of implantation, mice were randomly assigned to the following experimental groups and administered daily by oral gavage for 21 days: (a) saline; (b) erlotinib (50 mg/kg); (c) 150 mg/kg and (d) 300 mg/kg of Morinda spp. leaves, Clinacanthus spp. leaves. Mice were sacrificed via intraperitoneal injection of ketamine HCl (100 mg/kg) and xylazine (10 mg/kg). Tumor was collected. Some were kept in liquid nitrogen for gene expression, while others were fixed in 10% formalin and embedded in paraffin for hematoxylin and eosin (H&E) and immunohistochemical (IHC) examination. IHC kits (ChemMate™ DAKO EnVision™ Detection Kit, Peroxidase/DAB, Rabbit/Mouse) were purchased from Dako, Denmark. The primary antibody was anti-EGFR antibody ab15669 (Abeam; Cambridge, United Kingdom). This protocol was approved by the Animal Care and Use Committee of University Putra Malaysia (UPM/IACUC/AUP-R016/2013).
RNA was isolated using Trizol (Invitrogen, Carlsbad, Calif.). Custom RT^2 Profiler PCR Array (CAPM11988), RT^2 SYBR Green qPCR Mastermix, RT^2 First Strand Kit and RNase-Free DNase Set were purchased from SuperArray Bioscience Corporation (Frederick, Md.). Quantitative RT-PCR array for differentially expressed genes of interest was performed utilizing RT^2 Profiler PCR Array Data Analysis version 3.5 (SABiosciences; Fredrick, Md., USA), which normalized to Hsp90ab1 (NM_008302) and Gapdh (NM_008084). RT-PCR data is represented as the average relative mRNA gene expression of each experimental group (n=3).

[6] = Erlotinib 50 mg/kg, vs untreated

Compound: CC1=C(/C=C/C(C)=C/C=C/C(C)=C/C(=O)O)C(C)(C)CCC1 [ATRA]
- apoptosis in spleen tissue (TUNEL) [1]: significant (P<0.05) apoptosis

Compound: C#Cc1cccc(Nc2ncnc3cc(OCCOC)c(OCCOC)cc23)c1 [erlotinib]
- S and G2/M phase cells (A549 cells (lung cancer) [2]): concomitant decrease
- cell cycle arrest (A549 cells (lung cancer) [2]): induced G0/G1 phase cell cycle arrested
- cell cycle arrest (A549 cells (lung cancer) [2]; listed as erlotnib): induced G0/G1 arrest
- IC50 (A549 cells): 2.83 µg/mL (≈ 7.19 µM)
- tumor size [3]: 36.26±37.00 mm^3
- AO/PI double-stained morphology (A549 cells (lung cancer) [4]; after 24 h): cells exhibit blebbing of the cell membrane and bright green nucleus showing condensation of chromatin
- AO/PI double-stained morphology (A549 cells (lung cancer) [4]; after 48 h): late apoptosis features were seen
- AO/PI double-stained morphology (A549 cells (lung cancer) [4]; after 72 hours): more late apoptosis
- activity of caspase 9 (A549 (lung cancer)): remained unchanged
- activity of caspase-3 (A549 (lung cancer)): significantly (P<0.05) increased
- activity of caspase-8 (A549 (lung cancer)): significantly (P<0.05) increased
- morphological changes of A549 cells (A549 cells (lung cancer) [5]; after 24 h): most of the cells exhibit normal morphology while some cells show cell shrinkage
- morphological changes of A549 cells (A549 cells (lung cancer) [5]; after 48 h): clear apoptogenic morphology such as blebbing and cell shrinkage observed
- morphological changes of A549 cells (A549 cells (lung cancer) [5]; after 72 h): most of the cells were detached with obvious cell shrinkage, and blebbing of the cell membrane
- Fold Change Bcl2 (tumor tissues; [6]): −3.57 fold
- Fold Change Birc5 (tumor tissues; [6]): −2.40 fold
- Fold Change Jak2 (tumor tissues; [6]): −1.26 fold
- Fold Change Stat3 (tumor tissues; [6]): 1.06 fold
- Fold Change Stat5a (tumor tissues; [6]): 1.42 fold
- Fold Change Trp53 (tumor tissues; [6]): −1.10 fold
- survivin and Bcl-2 expression (tumor tissues; erlotinib positive control): down-regulation
